Consider two compounds from patent US20120251999A1, “VITRIFICATION SYSTEMS AND METHODS” (THE BRIGHAM AND WOMEN'S HOSPITAL, INC., priority 2011, published 2012).

The structures appear in SMILES notation. “And” between values parts separate entries of the source, which are not always exact repeats. Equal entries are not always repeated. Where two headings read alike, the source gives them in different places.

For data set [1] the following is noted: ejected into liquid nitrogen. From the text: The experimental setup was as described in Song et al. PNAS 2010.
The test system of data set [2] is mouse oocytes. The data set is described as follows: Parthenogenetic activation of oocytes using SrCl2 (cleavage and blastocyst development). Format: cell-based. As for the experimental part: Prior to parthenogenetic activation, oocytes were cultured in KSOM medium supplemented with 4 mg/ml BSA for 2 h to allow oocytes to recover from the previous experimental procedure. For parthenogenetic activation, oocytes were incubated in SrCl2 solution in KSOM medium at 37° C. in 5% CO2/95% air for 2 h and then washed three-times with FHM medium. Oocytes were then transferred to KSOM medium and cultured at 37° C. in 5% CO2/95% air.
To determine the optimal SrCl2 concentration to parthenogenetically activate fresh mouse oocytes, we tested four SrCl2 concentrations (10 mM, 20 mM, 50 mM and 100 mM). Over the following 6 days, treated oocytes were examined microscopically every day for embryo development to the cleavage and blastocyst stages. Day 1 is defined as 24 h after treatment. Oocytes incubated in the regular KSOM medium without SrCl2 were used as controls. To determine whether droplet encapsulation has effect on oocyte parthenogenetic activation, oocytes in FHM medium were ejected into a center well culture dish containing 400 μl of FHM medium. To minimize the effects of shear stress generated at the ejector tip when using medium instead of CPAs, the flow rate of nitrogen gas was reduced to 0.6 SLPM to obtain droplet sizes similar to those obtained at 0.8 SLPM using CPAs. Oocytes were retrieved and cultured in KSOM medium at 37° C. in 5% CO2/95% air for 2 h before parthenogenetic activation. SrCl2 solution at the concentration of 50 mM, which gave the highest cleavage and blastocyst rates with control oocytes, was used for the activation of oocytes following ejection into the medium.

The mark [3] stands for this setting: 10 mM SrCl2, fresh control oocytes.
The mark [4] stands for this setting: 10 mM SrCl2, fresh control oocytes, 81 initiated.
The mark [5] stands for this setting: 20 mM SrCl2, fresh control oocytes.
The mark [6] stands for this setting: 20 mM SrCl2, fresh control oocytes, 82 initiated.
Where [7] appears, read: 50 mM SrCl2, fresh control oocytes.
The mark [8] stands for this setting: 50 mM SrCl2, fresh control oocytes, 79 initiated.
[9] abbreviates: 50 mM SrCl2, oocytes after ejection with medium.
Setting [10] is: 100 mM SrCl2, fresh control oocytes.
[11] abbreviates: 100 mM SrCl2, fresh control oocytes, 88 initiated.

Take `CC(O)CO` (stereo not shown) [PrOH, 1,2-propanediol]: the vitrification of droplets entry in data set [1] (194 μm droplets, 3 M PrOH) was “vitrified”; in data set [1] (525 μm droplets, 4.5 M PrOH), “non-vitrified”.

Take `[Cl-].[Cl-].[Sr+2]` [SrCl2]: the “Blastocysts developed (%)” value is recorded as 0 (0) in data set [2] (setting [3]); 15.9% in data set [2] (setting [5]); 49.4% in data set [2] (setting [7]); 26.0% in data set [2] (setting [9]); 2.3% in data set [2] (setting [10]). The “Oocytes cleaved (%)” value in data set [2] (setting [3]) is 3.7%; in data set [2] (setting [5]), 46.3%; in data set [2] (setting [7]) it was 88.9% and 88.6%; in data set [2] (setting [9]) it was 96% and 97.0%; in data set [2] (setting [10]) it was 48.9%. Moreover, the “Blastocysts developed (number)” value was 0 (0) in data set [2] (setting [4]); 13 in data set [2] (setting [6]); 33 in data set [2] (setting [8]); 26 in data set [2] (50 mM SrCl2, oocytes after ejection with medium, 100 initiated); 2 in data set [2] (setting [11]). Besides, the “No. of Oocytes cleaved” value amounted to 3 in data set [2] (setting [4]); 38 in data set [2] (setting [6]); 70 in data set [2] (setting [8]); 96 in data set [2] (50 mM SrCl2, oocytes after encapsulation in medium droplets and ejection into medium, 100 initiated); 43 in data set [2] (setting [11]).
